In PubChem BioAssay AID1963983 (Molecular Pharmacology Branch, DTP, NCI, 2024):
One block for each compound: values may come before it.

System: 186277-243-T-J2-PDC multi-cell spheroid viability
Assay: Anticancer human tumor 186277-243-T-J2-PDC patient-derived colon adenocarcinoma cell line growth inhibition [PI3K]
Settings: for IC50: curve of first compound; for viability, T/C: stronger effect = lower value
How it was run: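 Spheroid viability read-out. Co-cultures contained the tumor line plus HUVEC and human MSCs. Each agent was paired with a PI3K inhibitor (inavolisib, alpelisib, duvelisib, copanlisib) across half-log dilutions starting at clinical Cmax, or at 10 microM when Cmax was unknown.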

[1] = second compound 0.0316 µM, first compound 0.0316 µM
[2] = second compound 0.0316 µM, first compound 0.1 µM
[3] = second compound 0.1 µM, first compound 0.0316 µM
[4] = second compound 0.1 µM, first compound 0.1 µM
[5] = second compound 0.316 µM, first compound 0.0316 µM
[6] = second compound 0.316 µM, first compound 0.1 µM
[7] = second compound 1 µM, first compound 0.0316 µM
[8] = second compound 1 µM, first compound 0.1 µM
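Further: spheroids exposed to compounds for seven days before viability reading.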
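Wherever viability, T/C is given: 100% = DMSO vehicle control viability.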

IC50 (second compound 0.0316 µM): > 100 nM
IC50 (second compound 0.1 µM): > 100 nM
IC50 (second compound 0.316 µM): > 100 nM
IC50 (second compound 1 µM): > 100 nM
IC50 (second compound 3.16 µM): 2.54 nM
IC50 (second compound 10 µM): < 0.316 nM
Compound: Cn1ncnc1[C@H]1c2n[nH]c(=O)c3cc(F)cc(c23)N[C@@H]1c1ccc(F)cc1 + Cc1nc(NC(=O)N2CCCC2C(N)=O)sc1-c1ccnc(C(C)(C)C(F)(F)F)c1
viability, T/C (second compound 0.0316 µM, first compound 0.000316 µM): 86.8%
viability, T/C (second compound 0.0316 µM, first compound 0.001 µM): 82.2%
viability, T/C (second compound 0.0316 µM, first compound 0.00316 µM): 94.5%
viability, T/C (second compound 0.0316 µM, first compound 0.01 µM): 96.9%
viability, T/C [1]: 112%
viability, T/C [2]: 92.7%
viability, T/C (second compound 0.1 µM, first compound 0.000316 µM): 114%
viability, T/C (second compound 0.1 µM, first compound 0.001 µM): 99.6%
viability, T/C (second compound 0.1 µM, first compound 0.00316 µM): 97.1%
viability, T/C (second compound 0.1 µM, first compound 0.01 µM): 117%
viability, T/C [3]: 116%
viability, T/C [4]: 108%
viability, T/C (second compound 0.316 µM, first compound 0.000316 µM): 114%
viability, T/C (second compound 0.316 µM, first compound 0.001 µM): 113%
viability, T/C (second compound 0.316 µM, first compound 0.00316 µM): 112%
viability, T/C (second compound 0.316 µM, first compound 0.01 µM): 107%
viability, T/C [5]: 104%
viability, T/C [6]: 90.4%
viability, T/C (second compound 1 µM, first compound 0.000316 µM): 101%
viability, T/C (second compound 1 µM, first compound 0.001 µM): 94.9%
viability, T/C (second compound 1 µM, first compound 0.00316 µM): 99.9%
viability, T/C (second compound 1 µM, first compound 0.01 µM): 91.6%
viability, T/C [7]: 85.5%
viability, T/C [8]: 65.9%
viability, T/C (second compound 3.16 µM, first compound 0.000316 µM): 64.3%
viability, T/C (second compound 3.16 µM, first compound 0.001 µM): 52.7%
viability, T/C (second compound 3.16 µM, first compound 0.00316 µM): 45.9%
viability, T/C (second compound 3.16 µM, first compound 0.01 µM): 46.9%
viability, T/C (second compound 3.16 µM, first compound 0.0316 µM): 43.9%
viability, T/C (second compound 3.16 µM, first compound 0.1 µM): 33.6%
viability, T/C (second compound 10 µM, first compound 0.000316 µM): 13.6%
viability, T/C (second compound 10 µM, first compound 0.001 µM): 12%
viability, T/C (second compound 10 µM, first compound 0.00316 µM): 14.8%
viability, T/C (second compound 10 µM, first compound 0.01 µM): 17.4%
viability, T/C (second compound 10 µM, first compound 0.0316 µM): 11.3%
viability, T/C (second compound 10 µM, first compound 0.1 µM): 8.17%

IC50 (second compound 0.00316 µM): 3590 nM
IC50 (second compound 0.01 µM): 1230 nM
IC50 (second compound 0.0316 µM): < 31.6 nM
IC50 (second compound 0.1 µM): < 31.6 nM
IC50 (second compound 0.316 µM): < 31.6 nM
IC50 (second compound 1 µM): < 31.6 nM
Compound: CC1(C)CCC(Nc2ncc(C(F)(F)F)c(-c3c[nH]c4c(P(C)(C)=O)c(C#N)ccc34)n2)CN1 (stereo unspecified) + COc1c(OCCCN2CCOCC2)ccc2c3n(c(=NC(=O)c4cnc(N)nc4)nc12)CCN3
viability, T/C (second compound 0.00316 µM, first compound 0.0316 µM): 64.8%
viability, T/C (second compound 0.00316 µM, first compound 0.1 µM): 57.4%
viability, T/C (second compound 0.00316 µM, first compound 0.316 µM): 52%
viability, T/C (second compound 0.00316 µM, first compound 1 µM): 55.4%
viability, T/C (second compound 0.00316 µM, first compound 3.16 µM): 56.2%
viability, T/C (second compound 0.00316 µM, first compound 10 µM): 0.33%
viability, T/C (second compound 0.01 µM, first compound 0.0316 µM): 71.5%
viability, T/C (second compound 0.01 µM, first compound 0.1 µM): 54.7%
viability, T/C (second compound 0.01 µM, first compound 0.316 µM): 50.8%
viability, T/C (second compound 0.01 µM, first compound 1 µM): 54.1%
viability, T/C (second compound 0.01 µM, first compound 3.16 µM): 40.6%
viability, T/C (second compound 0.01 µM, first compound 10 µM): 0.85%
viability, T/C [1]: 37.3%
viability, T/C [2]: 36.6%
viability, T/C (second compound 0.0316 µM, first compound 0.316 µM): 26.8%
viability, T/C (second compound 0.0316 µM, first compound 1 µM): 25.9%
viability, T/C (second compound 0.0316 µM, first compound 3.16 µM): 14.5%
viability, T/C (second compound 0.0316 µM, first compound 10 µM): 1.27%
viability, T/C [3]: 7.6%
viability, T/C [4]: 10.5%
viability, T/C (second compound 0.1 µM, first compound 0.316 µM): 7.54%
viability, T/C (second compound 0.1 µM, first compound 1 µM): 6.56%
viability, T/C (second compound 0.1 µM, first compound 3.16 µM): 5.27%
viability, T/C (second compound 0.1 µM, first compound 10 µM): 1.02%
viability, T/C [5]: 2.73%
viability, T/C [6]: 3.91%
viability, T/C (second compound 0.316 µM, first compound 0.316 µM): 3.66%
viability, T/C (second compound 0.316 µM, first compound 1 µM): 3.38%
viability, T/C (second compound 0.316 µM, first compound 3.16 µM): 1.31%
viability, T/C (second compound 0.316 µM, first compound 10 µM): 0.34%
viability, T/C [7]: 2.08%
viability, T/C [8]: 1.57%
viability, T/C (second compound 1 µM, first compound 0.316 µM): 1.5%
viability, T/C (second compound 1 µM, first compound 1 µM): 1.26%
viability, T/C (second compound 1 µM, first compound 3.16 µM): 1.04%
viability, T/C (second compound 1 µM, first compound 10 µM): 0.42%

IC50 (second compound 0.00316 µM): 73.9 nM
IC50 (second compound 0.01 µM): 29.9 nM
IC50 (second compound 0.0316 µM): < 9.49 nM
IC50 (second compound 0.1 µM): < 9.49 nM
IC50 (second compound 0.316 µM): < 9.49 nM
IC50 (second compound 1 µM): < 9.49 nM
Compound: Cn1cnc2c(F)c(Nc3ccc(Br)cc3Cl)c(C(=O)NOCCO)cc21 + COc1c(OCCCN2CCOCC2)ccc2c3n(c(=NC(=O)c4cnc(N)nc4)nc12)CCN3
viability, T/C (second compound 0.00316 µM, first compound 0.00949 µM): 91.7%
viability, T/C (second compound 0.00316 µM, first compound 0.03 µM): 74.6%
viability, T/C (second compound 0.00316 µM, first compound 0.0949 µM): 38.3%
viability, T/C (second compound 0.00316 µM, first compound 0.3 µM): 28.9%
viability, T/C (second compound 0.00316 µM, first compound 0.949 µM): 13.1%
viability, T/C (second compound 0.00316 µM, first compound 3 µM): 7.3%
viability, T/C (second compound 0.01 µM, first compound 0.00949 µM): 81.6%
viability, T/C (second compound 0.01 µM, first compound 0.03 µM): 50%
viability, T/C (second compound 0.01 µM, first compound 0.0949 µM): 24.9%
viability, T/C (second compound 0.01 µM, first compound 0.3 µM): 11.7%
viability, T/C (second compound 0.01 µM, first compound 0.949 µM): 8.98%
viability, T/C (second compound 0.01 µM, first compound 3 µM): 5.03%
viability, T/C (second compound 0.0316 µM, first compound 0.00949 µM): 28.9%
viability, T/C (second compound 0.0316 µM, first compound 0.03 µM): 20.9%
viability, T/C (second compound 0.0316 µM, first compound 0.0949 µM): 13.5%
viability, T/C (second compound 0.0316 µM, first compound 0.3 µM): 8.43%
viability, T/C (second compound 0.0316 µM, first compound 0.949 µM): 3.94%
viability, T/C (second compound 0.0316 µM, first compound 3 µM): 2.23%
viability, T/C (second compound 0.1 µM, first compound 0.00949 µM): 14.6%
viability, T/C (second compound 0.1 µM, first compound 0.03 µM): 7.23%
viability, T/C (second compound 0.1 µM, first compound 0.0949 µM): 5.32%
viability, T/C (second compound 0.1 µM, first compound 0.3 µM): 2.22%
viability, T/C (second compound 0.1 µM, first compound 0.949 µM): 0.6%
viability, T/C (second compound 0.1 µM, first compound 3 µM): 0.24%
viability, T/C (second compound 0.316 µM, first compound 0.00949 µM): 2.44%
viability, T/C (second compound 0.316 µM, first compound 0.03 µM): 1.09%
viability, T/C (second compound 0.316 µM, first compound 0.0949 µM): 1.66%
viability, T/C (second compound 0.316 µM, first compound 0.3 µM): 0.37%
viability, T/C (second compound 0.316 µM, first compound 0.949 µM): 0.45%
viability, T/C (second compound 0.316 µM, first compound 3 µM): 0.11%
viability, T/C (second compound 1 µM, first compound 0.00949 µM): 0.41%
viability, T/C (second compound 1 µM, first compound 0.03 µM): 0.28%
viability, T/C (second compound 1 µM, first compound 0.0949 µM): 0.32%
viability, T/C (second compound 1 µM, first compound 0.3 µM): 0.14%
viability, T/C (second compound 1 µM, first compound 0.949 µM): 0.15%
viability, T/C (second compound 1 µM, first compound 3 µM): 0.18%
